Assay results taken from US12077495B2 (priority 2018, dated 2024).

How the values were obtained:
[1] = target: T1, high-affinity forebrain binding sites (Mus musculus, UniProt P11798); test: Ex vivo 3H-A radioligand binding, autoradiography of mouse brain sections; assay type: in vivo, mice; details: 5 MBq per mouse i.p.; 30 min
T1 construct: from tissue; host or cells: C57BL/6J mouse brain (hippocampus, cortex) after i.p. injection of 3H-A
Experimental: ^3H-A was used to perform ex vivo binding to C57BL/6J mice. Thus, in a design with 5 mice per group, ^3H-A (5 MBq per mouse) was injected i.p. After 30 min, the brains were dissected and autoradiography performed.

CAMK2B = target: T2, CAMK2B (Rattus norvegicus, UniProt P08413); test: 3H-A binding to recombinant CAMK2B expressed in HEK293T cells; details: HEK293T whole cell homogenate
T2 construct: host or cells: HEK293T
T2 sequence (P08413 whole entry): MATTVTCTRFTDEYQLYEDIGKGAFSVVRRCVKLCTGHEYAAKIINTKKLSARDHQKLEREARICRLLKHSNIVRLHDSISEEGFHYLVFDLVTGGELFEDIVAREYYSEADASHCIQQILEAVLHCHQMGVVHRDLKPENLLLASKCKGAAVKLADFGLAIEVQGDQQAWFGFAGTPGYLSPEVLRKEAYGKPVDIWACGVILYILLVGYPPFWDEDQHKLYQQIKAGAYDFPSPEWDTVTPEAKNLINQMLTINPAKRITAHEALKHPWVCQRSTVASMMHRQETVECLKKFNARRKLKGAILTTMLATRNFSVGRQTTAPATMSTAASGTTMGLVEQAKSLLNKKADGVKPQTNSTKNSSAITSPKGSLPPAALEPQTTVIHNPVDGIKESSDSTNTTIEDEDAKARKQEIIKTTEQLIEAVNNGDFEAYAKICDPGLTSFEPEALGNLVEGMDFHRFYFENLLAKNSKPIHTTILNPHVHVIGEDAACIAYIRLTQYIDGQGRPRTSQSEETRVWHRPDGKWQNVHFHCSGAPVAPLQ
Experimental: HEK293T were cultured using standard conditions, using Dulbecco's modified Eagle Medium with GlutaMax, 10% fetal bovine serum and 1% penicillin-streptomycin, and incubated at 37° C. in a humidified atmosphere of […] and 5% CO2. Cells were transfected with rat CAMK2A (Origene construct RR201121) or rat CAMK2B (Origene construct RR200520) using PolyFect (Qiagen, West Sussex, UK) according to the manufacturer's protocol. Whole cell homogenates were prepared 48 hr post-transfection by washing the cells with ice-cold 1×PBS and harvesting by scraping. Cells were collected and centrifuged for 10 min at 1000×g. Cell pellets were resuspended in ice-cold 1×PBS and homogenized using 2×1 mm zirkonium beads in a bullet blender for 20 s at max speed (NextAdvance, NY, USA). Homogenates were cleared by centrifugation (10 min, 4° C., 14.000×g). Protein concentration was determined using the Bradford protein assay. 150-200 μg protein was incubated with 5 nM ^3H-A and test compound in 1 ml total volume for 1 hr at 0-4° C. […] Proteins were then precipitated by addition of ice-cold acetone (4× of the assay volume), vortexing and incubation at −20° C. for 1 hr. Proteins were filtrated rapidly through GF/C unifilters (Whatman) and washed. The dried filters were added scintillation liquid and radioactivity measured on a Tricarb 2100 Scintillation counter (Packard). […]

CAMK2A = target: T3, CAMK2A (Rattus norvegicus, UniProt P11275); test: biochemical; assay type: binding; details: non-specific: 1 mM GHB
T3 construct: host or cells: HEK293T
T3 sequence (P11275 whole entry): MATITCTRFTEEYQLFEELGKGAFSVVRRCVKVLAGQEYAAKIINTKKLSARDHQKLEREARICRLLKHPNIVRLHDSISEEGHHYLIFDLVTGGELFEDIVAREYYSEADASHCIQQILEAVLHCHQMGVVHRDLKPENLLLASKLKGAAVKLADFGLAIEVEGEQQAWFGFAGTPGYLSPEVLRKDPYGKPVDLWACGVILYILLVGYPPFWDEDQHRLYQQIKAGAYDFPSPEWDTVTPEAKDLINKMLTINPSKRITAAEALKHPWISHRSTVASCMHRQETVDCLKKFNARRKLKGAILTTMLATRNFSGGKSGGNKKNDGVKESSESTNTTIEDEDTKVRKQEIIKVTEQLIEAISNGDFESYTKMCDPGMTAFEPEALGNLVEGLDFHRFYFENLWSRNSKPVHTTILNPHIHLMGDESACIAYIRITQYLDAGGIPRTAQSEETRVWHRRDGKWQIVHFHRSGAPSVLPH
Experimental: Cells were transfected with rat CAMK2A (Origene construct RR201121) or rat CAMK2B (Origene construct RR200520) using PolyFect (Qiagen, West Sussex, UK) according to the manufacturer's protocol. Whole cell homogenates were prepared 48 hr post-transfection by washing the cells with ice-cold 1×PBS and harvesting by scraping. Cells were collected and centrifuged for 10 min at 1000×g. Cell pellets were resuspended in ice-cold 1×PBS and homogenized using 2×1 mm zirkonium beads in a bullet blender for 20 s at max speed (NextAdvance, NY, USA). Homogenates were cleared by centrifugation (10 min, 4° C., 14.000×g). Protein concentration was determined using the Bradford protein assay. 150-200 μg protein was incubated with 5 nM ^3H-A and test compound in 1 ml total volume for 1 hr at 0-4° C. […] Proteins were then precipitated by addition of ice-cold acetone (4× of the assay volume), vortexing and incubation at −20° C. for 1 hr. Proteins were filtrated rapidly through GF/C unifilters (Whatman) and washed. The dried filters were added scintillation liquid and radioactivity measured on a Tricarb 2100 Scintillation counter (Packard).
A) Principle of photoaffinity labelling workflow. […] After introduction of biotin through a Staudinger-Bertozzi ligation to EZ-Link™ Phosphine-PEG3-Biotin (ThermoFisher Scientific), the biotin-labelled proteins were affinity-purified and subjected to LC-MS/MS analysis. […] C)^3H-A binding to cortical membranes from CAMK2A and CAMK2B knock-out mouse brains.
Human/rat CAMK2A expressed in HEK cells was assayed in an in-house established ^3H-A filtration binding assay performed on whole cell lysates of CAMK2A-transfected HEK293T cells.

rodents = test: Observation of acute toxicity or sedation in rodents; assay type: in vivo; details: doses as high as 500 mg/kg
[2] = peripheral administration; cited from earlier work

T1 sequence (P11798 whole entry): as the sequence (P11275 whole entry) above

Question: With [3H]C1(O)C=C(C(=O)O)CC1 (centres unmarked) [^3H-A] as the compound, how does the “ex vivo specific binding in hippocampus and cortex vs cerebellum” value [1] read?
Answer: The value was “Significant specific binding levels”.

Question: What about the “specific binding at CAMK2B” value (CAMK2B) of the same compound?
Answer: The value was “no specific binding”.

Question: What about the “specific binding to CAMK2A-transfected HEK293T whole cell homogenate” value (CAMK2A) of the same compound?
Answer: Its value is 87%.

Question: Which results are given for O=C([O-])C1=CC(O)CC1.[Na+] (centres unmarked) [sodium salt of A]?
Answer: acute toxicity or sedation (rodents): no apparent observations of acute toxicity or sedation; brain entry [2]: readily enters the brain
